From the NIST ThermoML archive (doi:10.1021/je101139k)
Numbers after ± are expanded uncertainties.

Columns and labels:
[1] = Molar enthalpy of transition or fusion; details: Crystal; DSC
[2] = molar heat capacity at constant pressure; details: 101.33 kPa, Small sample (50 mg) DSC
[3] = Crystal; DTA

For [Br-].[Br-].[Br-].[Pr+3] [praseodymium(III) bromide], the “Molar enthalpy of transition or fusion” value [1] was 11.1 ± 0.359 kcal/mol, the “molar heat capacity at constant pressure” value ([2]; 298.15 K, Crystal) was 105.37 ± 7.6 J/K/mol and the “molar heat capacity at constant pressure” value ([2]; 300 K, Crystal) was 105.39 ± 7.6 J/K/mol. For the same compound, the “molar heat capacity at constant pressure” value ([2]; 331 K, Crystal) was 105.87 ± 7.6 J/K/mol, the “molar heat capacity at constant pressure” value ([2]; 400 K, Crystal) was 106.93 ± 7.7 J/K/mol and the “molar heat capacity at constant pressure” value ([2]; 500 K, Crystal) was 108.46 ± 7.8 J/K/mol. The “molar heat capacity at constant pressure” value ([2]; 600 K, Crystal) was 109.99 ± 7.9 J/K/mol, the “molar heat capacity at constant pressure” value ([2]; 700 K, Crystal) was 111.52 ± 8 J/K/mol and the “molar heat capacity at constant pressure” value ([2]; 800 K, Crystal) was 113.05 ± 8.1 J/K/mol. For the same compound, the “molar heat capacity at constant pressure” value ([2]; 900 K, Crystal) was 114.58 ± 8.2 J/K/mol, the “molar heat capacity at constant pressure” value ([2]; 960 K, Crystal) was 115.5 ± 8.3 J/K/mol and the “molar heat capacity at constant pressure” value ([2]; 960 K, Liquid) was 141.39 ± 10 J/K/mol. The “molar heat capacity at constant pressure” value ([2]; 1000 K, Liquid) was 141.39 ± 10 J/K/mol, the “molar heat capacity at constant pressure” value ([2]; 1065 K, Liquid) was 141.39 ± 10 J/K/mol and the “molar heat capacity at constant pressure” value ([2]; 1100 K, Liquid) was 141.39 ± 10 J/K/mol. The “molar heat capacity at constant pressure” value ([2]; 1191 K, Liquid) was 141.39 ± 10 J/K/mol, the “molar heat capacity at constant pressure” value ([2]; 1200 K, Liquid) was 141.39 ± 10 J/K/mol and the “molar heat capacity at constant pressure” value ([2]; 1300 K, Liquid) was 141.39 ± 10 J/K/mol. For the same compound, the Normal melting temperature [3] was 687 ± 1 °C.
